Reference: US8906898B1, “Solid forms of ceftolozane” (Calixa Therapeutics, Inc., priority 2013, dated 2014)
Where a name gives a salt, the structure may show the parent alone.

What was measured:
Format in all cases: physicochemical
[1] = Stability of HPLC sample solution in refrigerated autosampler; details: 1 mg/mL in 50 mM sodium perchlorate monohydrate, pH 4.00; 4±2° C.
Experimental: (§1) Ceftolozane sulfate samples are prepared at a concentration of 1 mg/mL in diluent (50 mM sodium perchlorate monohydrate, pH 4.00). The system suitability standard (SST) is prepared at a concentration of 1 mg/mL of ceftolozane sulfate containing specified impurities in diluent (50 mM sodium perchlorate monohydrate, pH 4.00). Ceftolozane samples and SST are stored in a refrigerated autosampler tray at 4±2° C. and the samples are only stable for 5 hours at this condition.

[2] = Ceftolozane precipitation time as function of solution concentration (visual assessment); details: pH 6.9, 2 to 8° C.
Experimental: Sterile ceftolozane compositions suitable for combination with tazobactam to form a pharmaceutical composition are prepared as a lyophilized powder from the ceftolozane sulfate comprising solid Form 2 by compounding the drug substance with excipients into an aqueous solution, aseptically filtering the solution, lyophilizing the solution, then grinding, sieving and packaging the sterile lyophilized powder. The physical stability of the bulk solution at varying concentrations was examined and concentrations up to 150 mg ceftolozane free base/g solution were found suitable. All the registration batches were prepared using 150 mg/g ceftolozane concentration in the compounding solution and this concentration is proposed for commercial manufacturing. The resulting ceftolozane composition solubility was assessed in a concentration range proposed for manufacturing, in the presence of excipients intended for use in the ceftolozane formulation for use in the pharmaceutical composition. […] Samples were adjusted to pH 6.9, held at 2 to 8° C., and visually assessed for any precipitation.

[3] = Comparative ceftolozane solvent stability test (purity by HPLC over 6 days)
Source text: This stability study was to evaluate stability and purity of ceftolozane sulfate in different solvent systems.
Sample 1 was a solvent system used to prepare crystalline ceftolozane sulfate from a mixture of isopropanol and water, as described in Example 2b (in the absence of ethanol). Sample 2 was solvent system used to obtain crystalline ceftolozane sulfate prepared according to the procedure of U.S. Pat. No. 7,129,232, wherein the crystals were precipitated from a mixture of ethanol and water.
Sample 1 and sample 2 were maintained for 6 days (as described in Example 2a, with continuous stirring). The purity of ceftolozane in the samples in each solvent system was measured by HPLC at day 0, day 3, and day 6.
as §1
Each sample is prepared in singlet and injected twice. Only impurities >LOD (0.008% Area) are integrated. The peak area percentage for each impurity >LOD is taken directly from the chromatogram. The mean % area of each peak is calculated and the absolute difference of any peak in the two replicates cannot be >0.030%. The purity and related substances are determined based on relative area % of each peak with respect to the total peak area of the sample. The total impurities are the sum of the individual impurities >LOD.

[4] = Water content by Karl Fischer volumetric titration with Stromboli oven; details: samples equilibrated at 130° C., mean of triplicate
Experimental: Water content of crystalline ceftolozane sulfate (prepared according to Example 2a as Form 1) was determined using a Mettler Toledo Karl Fischer volumetric titrator V30 that was connected to a Mettler Toledo Stromboli oven sample changer. AquaStar CombiTitrant 5 (EMD; Cat. No. 1.88005.1045; Lot No. 51096) was used as the titrant and the AquaStar Combi-Methanol (EMD; Cat. No 1.88009.1045; Lot No 53046) was used as the solvent. For data processing, the LabX software version 3.1.1.0 was employed. The Hydranal Water Standard for KF-Oven (Fluka; Cat. No. 34693; Lot No. SZBB010AV) that is expected to contain 5% water was weighed accurately in duplicate at or very close to 200 mg. The crystalline ceftolozane sulfate (15-18 mg) was weighed accurately in triplicate in separate 20 mL Stromboli sample vials. The vials were sealed with aluminum seals and rubber caps. A blank vial was prepared by sealing an empty 20-mL Stromboli vial with the aluminum seal and the rubber cap. The blank vial was used to determine the background moisture in air inside the vial. […] The KF titrator passed the accuracy test as the mean of the duplicate readings for the water standard was between the acceptance range of 4.80-5.20%. Water content results for crystalline ceftolozane sulfate derived from the triplicate weighings were recorded and the mean was reported. […]

[5] = Gravimetric dynamic vapour sorption (moisture sorption/desorption, hygroscopicity); details: decreasing RH, from reference point 30; 25° C.
Experimental: Gravimetric dynamic vapor sorption data (FIG. 5) was obtained using a SMS DVS Intrinsic moisture sorption analyser, controlled by DVS Intrinsic Control software v1.0.0.30. The sample temperature was maintained at 25° C. by the instrument controls. The humidity was controlled by mixing streams of dry and wet nitrogen. The relative humidity was measured by a calibrated Rotronic probe, located near the sample. The weight change of the sample as a function of % RH was constantly monitored by the microbalance (accuracy ±0.005 mg). Approximately 40 mg of sample was placed in a tared mesh stainless basket under ambient conditions. Weight reference was established at the start of an experiment. Moisture sorption isotherm parameters were described as below: [table] The moisture sorption/desorption property of crystalline cefolozane sulfate form 2 is depicted in FIG. 5. A reversible hysteresis associated with around 23% w/w water between 0% and 90% relative humidity (RH) was observed. The DVS isotherm in FIG. 5 is consistent with the presence of two crystalline forms that can be interconverted as function of relative humidity. The presence of ceftolozane sulfate solid Form 1 and ceftolozane sulfate solid Form 2 in the sample tested to obtain the DVS isotherm in FIG. 5 was confirmed by a variable humidity XRPD (VH-XRPD) measurement, based on the XRPD diffraction angles disclosed for Form 1 and Form 2 of ceftolozane sulfate (as disclosed herein). Referring to DVS the isotherm plot in FIG. 5, the lower curve corresponds to ceftolozane sulfate in solid Form 2, and the upper curve is corresponds to ceftolozane sulfate in solid Form 1. The Y-axis of the DVS plot is change in mass. The X-axis of DVS plot refers to the percent relative humidity (RH) of the sample. Reference point 10 in FIG. 5 is the starting point of Form 2 in DVS experiment. The lower portion of the curve in FIG. 5 was obtained by measuring the change in mass of a ceftolozane sulfate sample in solid Form 2 while increasing relative humidity (RH) in the sample, starting at reference point 10 of the lower curve from reference point 10 (Form 2) and moving toward reference point 20 (Form 1). Based on the data collected, the ceftolozane sulfate in the sample converted from Form 2 to Form 1 when the sample was exposed to conditions between 50% RH (reference point 12) and 70% RH (reference point 15). Referring again to the lower curve in FIG. 5, ceftolozane sulfate in Form 1 is present in the sample from 70% RH to reference point 20, where the sample is ceftolozane sulfate is in crystalline Form 1. Referring to the upper curve in FIG. 5, from reference point 20 to reference point 30, the ceftolozane sulfate in the sample material remains as solid Form 1. From reference point 30 to around 20% RH (reference point 35 on the upper curve), the crystalline form of ceftolozane sulfate in the material transforms from Form 1 to Form 2. As the relative humidity of the sample was dropped below about 20% on the upper curve between reference point 30 and reference point 40 (0% RH), the ceftolozane sulfate became more amorphous, with some residual Form 2 remaining at reference point 40. […] Hygroscopicity of ceftolozane sulfate, Form 2 was assessed using the SMS DVS Intrinsic moisture sorption analyzer equipped with a calibrated Rotronic probe. […]

Cn1c(N)c(NC(=O)NCCN)c[n+]1CC1=C(C(=O)O)N2C(=O)[C@@H](NC(=O)/C(=N\OC(C)(C)C(=O)O)c3nsc(N)n3)[C@H]2SC1 [Ceftolozane sulfate, 5-amino-4-{[(2-aminoethyl)carbamoyl]amino}-2-{[(6R,7R)-7-({(2Z)-2-(5-amino-1,2,4-thiadiazol-3-yl)-2-[(1-carboxy-1-methylethoxy)imino]acetyl}amino)-2-carboxy-8-oxo-5-thia-1-azabicyclo[4.2.0]oct-2-en-3-yl]methyl}-1-methyl-1H-pyrazolium monosulfate]
time the sample solution is stable [1]: 5 h

Cn1c(N)c(NC(=O)NCCN)c[n+]1CC1=C(C(=O)[O-])N2C(=O)[C@@H](NC(=O)/C(=N\OC(C)(C)C(=O)O)c3nsc(N)n3)[C@H]2SC1 [Ceftolozane, (6R,7R)-3-[(5-amino-4-{[(2-aminoethyl)carbamoyl]amino}-1-methyl-1H-pyrazol-2-ium-2-yl)methyl]-7-({(2Z)-2-(5-amino-1,2,4-thiadiazol-3-yl)-2-[(1-carboxy-1-methylethoxy)imino]acetyl}amino)-8-oxo-5-thia-1-azabicyclo[4.2.0]oct-2-ene-2-carboxylate]
Time to Precipitate ([2]; ceftolozane sulfate 149 mg/g (free base 130 mg/g), with excipients): >24 hours^a
Time to Precipitate ([2]; ceftolozane sulfate 172 mg/g (free base 150 mg/g), with excipients): >48 h
Time to Precipitate ([2]; ceftolozane sulfate 178 mg/g (free base 156 mg/g), last observation at 24 hour): >24 hours^1)
Time to Precipitate ([2]; ceftolozane sulfate 189 mg/g (free base 165 mg/g), with excipients): <18 h
Time to Precipitate ([2]; ceftolozane sulfate 200 mg/g (free base 174 mg/g), with excipients): 2 h
purity of ceftolozane after 6-day stability test ([3]; aqueous ethanol solution, methods of U.S. Pat. No. 7,129,232): about 68%
purity of ceftolozane at start of 6-day stability test ([3]; aqueous ethanol solution, precipitation per U.S. Pat. No. 7,129,232): about 97%
purity of ceftolozane after 6-day stability test ([3]; process using isopropanol (Example 2a), liquid phase): about 82%

Cn1c(N)c(NC(=O)NCCN)c[n+]1CC1=C(C(=O)O)N2C(=O)[C@@H](NC(=O)/C(=N\OC(C)(C)C(=O)O)c3nsc(N)n3)[C@H]2SC1.O=S(=O)([O-])O [Example 1, 7β-[(Z)-2-(5-amino-1,2,4-thiadiazol-3-yl)-2-(1-carboxy-1-methylethoxyimino)acetamido]-3-{3-amino-4-[3-(2-aminoethyl)ureido]-2-methyl-1-pyrazolio}methyl-3-cephem-4-carboxylic acid hydrogen sulfate]
water content by weight [4]: about 26.3%

Cn1c(N)c(NC(=O)NCCN)c[n+]1CC1=C(C(=O)O)N2C(=O)[C@@H](NC(=O)/C(=N\OC(C)(C)C(=O)O)c3nsc(N)n3)[C@H]2SC1 [ceftolozane sulfate Form 1]
relative humidity down to which Form 1 transforms to Form 2 [5]: around 20 % RH
